Laboratory results as given in patent US6645960B1, “Antifungal sordaricin derivatives” (Glaxo Wellcome S.A., priority 1999, dated 2003).

Tests used:
Candida albicans 4711 = test: standard in vitro screen, minimum inhibiting concentration (MIC) by two-fold serial dilution, in the presence or absence of mouse serum; assay type: cell-based; conditions: for MIC 50%serum C.albicans4711: presence of 50% mouse serum; for MIC C.albicans4711: absence of mouse serum
Experimental: The in vitro evaluation of the anti-fungal activity of compounds of the invention was performed on liquid or solid medium by the anti-fungal two-fold serial dilution technique of determining the minimum inhibitory concentration (MIC) of anti-fungal agent that inhibited development of growth after 24 to 48 hours of incubation at 37° C. For example a series of agar plates or broth microdilution panels containing two-fold dilutions of anti-fungal agent were inoculated with a standard culture of a clinically relevant pathogen, in the presence and absence of activated or inactivated serum. The agar plates or broth microdilution panels were then examined for the presence or absence of growth of the fungus and the appropriate MIC values determined. […] Compounds of formula (I) have been tested for antifungal activity in a standard in vitro screen and the minimum inhibiting concentration (MIC;μg/ml) determined for each compound against a relevant strain of Candida albicans in the presence or absence of mouse serum.

[1] = tested on: battery of fungal organisms; conditions: tested against a battery of fungal organisms; cited from earlier work

Row | Compound | MIC 50%serum C.albicans4711 (Candida albicans 4711) [µg/mL] | MIC C.albicans4711 (Candida albicans 4711; hydrochloride) [µg/mL] | MIC 50%serum C.albicans4711 (Candida albicans 4711; hydrochloride) [µg/mL] | antifungal activity [1] | also measured
1 | [[1R-(1α,3aβ,4β,4aβ,7β,7aα,8aβ)]8a-[(2R,6R)-(4-allyl-6-methyl-morpholin-2-yl)-oxymethyl]-4-formyl-4,4a,5,6,7,7a,8,8a-octahydro-7-methyl-3-(1-methylethyl)-1,4-methano-s-indacene-3a(1H)-carboxylic acid, phthalidyl ester hydrochloride [Example 4] | 0.25 | – | – | – | –
2 | [[1R-(1α,3aβ,4β,4aβ,7β,7aα,8aβ)]8a-[(2R,6R)-(4-allyl-6-methyl-morpholin-2-yl)-oxymethyl]-4-formyl-4,4a,5,6,7,7a,8,8a-octahydro-7-methyl-3-(1-methylethyl)-1,4-methano-s-indacene-3a(1H)-carboxylic acid, pivaloyloxymethyl ester hydrochloride [Example 5] | 0.05 | – | – | – | MIC C.albicans4711 (Candida albicans 4711): >125 µg/mL
3 | C=CCN1C[C@H](OC[C@@]23C[C@@H]4[C@H](C)CC[C@H]4[C@@]4(C=O)C[C@@H]2C=C(C(C)C)[C@@]34C(=O)OC(C)OC(=O)OCC)O[C@H](C)C1.Cl (single isomer, unassigned) [Example 3] | – | 62 | 0.06 | – | –
4 | CO[C@H]1[C@@H](O)[C@H](O)[C@H](OC[C@@]23C[C@@H]4[C@H](C)CC[C@H]4[C@@]4(C=O)CC2C=C(C(C)C)[C@@]34C(=O)O)O[C@@H]1C [sordarin] | – | – | – | only moderately active | –
5 | C/C=C/C=C\C(=O)O[C@H]1[C@H](O)[C@H](OCC23C[C@@H]4[C@H](C)CC[C@H]4C4(C=O)CC2C=C(C(C)C)C34C(=O)O)O[C@H](C)[C@H]1OC (stereo partly drawn) [zofimarin] | – | – | – | only moderately active | –
6 | C=CCN1C[C@H](OC[C@@]23C[C@@H]4[C@H](C)CC[C@H]4[C@@]4(C=O)C[C@@H]2C=C(C(C)C)[C@@]34C(=O)OC(C)OC(=O)OCC)O[C@H](C)C1.Cl (single isomer, unassigned) [Example 2] | – | 8 | 0.12 | – | –
